Reference: patent publication US5637582A, “Peripheral circulation improving agent” (priority 1992, dated 1997)

Tests used:
femoral artery = assay: Change of femoral arterial blood flow in anesthetized dogs (Experimental Example 4); format: in vivo, dog; details: 100 μg/kg i.v.
Description: Each test compound was intravenously administered to adult dogs (one group consisting of 2 or 4 dogs) under anesthesia and artificial respiration at a dose of 100 μg/kg body weight. Femoral arterial blood flow, vertebral arterial blood flow and arterial blood pressure were measured 1, 3, 5, 10, 20 and 30 minutes after the administration. The femoral arterial blood flow and vertebral arterial blood flow were measured with an electromagnetic blood flowmeter (manufactured by Nihon Koden, MFV-2100, trade name) through a flow probe attached to the femoral artery or vertebral artery. The arterial blood pressure was measured with a pressure transducer (manufactured by Millar, MICRO-TIP, Model SPC-350) through a catheter attached to the brachial artery.
Changes of the femoral arterial blood flow, vertebral arterial blood flow and arterial blood pressure were estimated by comparing the values measured before and after the administration of the test compound.

arterial blood pressure = tested on: arterial blood pressure; parameters: species or system male SD rat; details: rat, in vivo
Description: (Lower limbs peripheral circulation disorder model due to hind leg cooling: Model of Raynaud's disease) […] TP-200T, trade name) through a catheter attached to the artery. […] After the operation, at the time that the state became stable, the left hind leg was exposed to a perfused solution at 10° C. to decrease the femoral arterial blood flow. […] In the case of Beraprost Na, continuous injection in an amount of […] was carried out after 30 minutes from cooling. […] The present model is disclosed, for example, in Nishio et al, "Effect of Beraprost Sodium on Peripheral Circulatory Disturbances Induced by Various Stimuli", Arzneim.-Forsch./Drug Res., 39 (II), Nr. 10 (1989), pp. 1229-1234. Note particularly the section "2.4. Sphygmometry in rat hind paw", at page 1230.

[1] = tested on: right anterior tibial muscle; assay: Abdominal aorta knot-anterior tibial muscle contraction model: model of Buerger's disease (Experimental Example 6); format: in vivo, rat; parameters: Change in contraction of the right anterior tibial muscle: unit not given here; details: 10 mg/kg/day p.o. 2 weeks
Description: (Abdominal aorta knot-anterior tibial muscle contraction model: Model of Buerger's disease)
Rats were previously divided into four groups (Group I: sham operation+5 ml/kg/day of distilled water, Group II: sham operation+10 mg/kg/day of the test compound A, Group III: abdominal aorta knot+5 ml/kg/day of distilled water, and Group IV: abdominal aorta knot+10 mg/kg/day of the test compound A), and operated under anesthesia, 10 mg/kg/day of the test compound A or 5 ml/kg/day of distilled water was orally administered to respective rats, to which an abdominal aorta was knotted or a sham operation was applied, for 2 weeks. Thereafter, a catheter was inserted into a trachea to secure airway under anesthesia. A skin at the right hind leg was cut to expose a muscle and a right anterior tibial muscle was isolated. After the operation, at the time that the state became stable, 10 mg/kg of the test compound A or 1 ml/kg of 0.25% CMC was administered into a duodenum. After 60 minutes from the administration, a tendon of the right anterior tibial muscle was connected with a transducer and the right anterior tibial muscle was directly stimulated electrically with platinum electrodes at 0.5 Hz to obtain a Force-Current curve. Then, electrical stimulation was carried out with a current which submaximally contracted the right anterior tibial muscle and a stimulation frequency of 1.5 Hz for 30 minutes to observe the progress. […]

For `CC(=O)O[C@@H]1C(=O)N(CCN(C)C)c2ccc(C)cc2S[C@@H]1c1ccc(C)cc1` [Compound A], the “Femoral Arterial Blood Flow change” value (femoral artery; 1 min) was 3.5 Δ ml/min, the “Femoral Arterial Blood Flow change” value (femoral artery; 3 min) was 5.5 Δ ml/min and the “Femoral Arterial Blood Flow change” value (femoral artery; 5 min) was 7.8 Δ ml/min. For the same compound, the “Femoral Arterial Blood Flow change” value (femoral artery; 10 min) was 13.0 Δ ml/min, the “Femoral Arterial Blood Flow change” value (femoral artery; 20 min) was 21.5 Δ ml/min and the “Femoral Arterial Blood Flow change” value (femoral artery; 30 min) was 28.0 Δ ml/min. For the same compound, the “AUC60 of the femoral arterial blood flow” value (femoral artery; 60 minutes after administration) was 1538.4 mL, the “femoral arterial blood flow increasing activity” value (femoral artery; even after 30 minutes, in words) was “excellent femoral arterial blood flow increasing activity” and the “Mean Arterial Pressure change” value (arterial blood pressure) was 0.00 Δ mmHg. The “Time (min) until 20A% contraction” value ([1]; Group II: sham operation) was 16.65 ± 2.99 min, the “Change in contraction of the right anterior tibial muscle” value (from here on “Change in contraction”) ([1]; Group II: sham operation, 1 min) was 3.29 and the “Change in contraction” value ([1]; Group II: sham operation, 3 min) was 1.71. The “Change in contraction” value ([1]; Group II: sham operation, 5 min) was -1.29, the “Change in contraction” value ([1]; Group II: sham operation, 10 min) was -12.88 and the “Change in contraction” value ([1]; Group II: sham operation, 15 min) was -20.91. The “Change in contraction” value ([1]; Group II: sham operation, 20 min) was -25.66, the “Change in contraction” value ([1]; Group II: sham operation, 30 min) was -30.19 and the “Time (min) until 20A% contraction” value ([1]; Group IV: abdominal aorta knot) was 17.27 ± 3.70 min. For the same compound, the “Change in contraction” value ([1]; Group IV: abdominal aorta knot, 1 min) was 2.44, the “Change in contraction” value ([1]; Group IV: abdominal aorta knot, 3 min) was -1.04 and the “Change in contraction” value ([1]; Group IV: abdominal aorta knot, 5 min) was -4.35. The “Change in contraction” value ([1]; Group IV: abdominal aorta knot, 10 min) was -15.46, the “Change in contraction” value ([1]; Group IV: abdominal aorta knot, 15 min) was -21.82 and the “Change in contraction” value ([1]; Group IV: abdominal aorta knot, 20 min) was -25.98. For the same compound, the “Change in contraction” value ([1]; Group IV: abdominal aorta knot, 30 min) was -30.17.
